Legend:
[1] = biological target: Sodium-dependent serotonin transporter (Homo sapiens, UniProt P31645); assay: Displacement of [3H]citalopram from SERT
[2] = biological target: Sodium-dependent noradrenaline transporter (Homo sapiens, UniProt P23975); assay: Displacement of [3H]nisoxetine from NET
[3] = biological target: T1, Sodium-dependent dopamine transporter (Homo sapiens, UniProt Q01959); assay: Displacement of [3H]WIN-35 from DAT
[4] = biological target: T1, Sodium-dependent dopamine transporter; assay: Displacement of [3H]WIN-35 from DAT at 1 uM

T1 sequence (Q01959 whole entry): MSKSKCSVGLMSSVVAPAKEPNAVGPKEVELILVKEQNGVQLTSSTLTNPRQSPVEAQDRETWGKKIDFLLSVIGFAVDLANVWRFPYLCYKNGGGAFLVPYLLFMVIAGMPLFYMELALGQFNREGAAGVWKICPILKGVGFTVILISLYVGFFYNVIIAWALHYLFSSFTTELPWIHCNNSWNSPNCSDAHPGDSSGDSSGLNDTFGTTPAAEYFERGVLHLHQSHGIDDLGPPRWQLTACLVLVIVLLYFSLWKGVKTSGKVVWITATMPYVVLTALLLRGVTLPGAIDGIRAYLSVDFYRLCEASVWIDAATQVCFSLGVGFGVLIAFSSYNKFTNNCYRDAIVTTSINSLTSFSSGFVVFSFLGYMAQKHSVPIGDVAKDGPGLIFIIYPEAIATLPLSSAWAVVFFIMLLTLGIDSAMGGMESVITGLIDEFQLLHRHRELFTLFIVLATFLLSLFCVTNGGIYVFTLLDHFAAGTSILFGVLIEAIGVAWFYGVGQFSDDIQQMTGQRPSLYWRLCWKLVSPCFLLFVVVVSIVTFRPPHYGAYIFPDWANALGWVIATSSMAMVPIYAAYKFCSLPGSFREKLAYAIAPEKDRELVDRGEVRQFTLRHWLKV
Sodium-dependent noradrenaline transporter, sequence (P23975 whole entry): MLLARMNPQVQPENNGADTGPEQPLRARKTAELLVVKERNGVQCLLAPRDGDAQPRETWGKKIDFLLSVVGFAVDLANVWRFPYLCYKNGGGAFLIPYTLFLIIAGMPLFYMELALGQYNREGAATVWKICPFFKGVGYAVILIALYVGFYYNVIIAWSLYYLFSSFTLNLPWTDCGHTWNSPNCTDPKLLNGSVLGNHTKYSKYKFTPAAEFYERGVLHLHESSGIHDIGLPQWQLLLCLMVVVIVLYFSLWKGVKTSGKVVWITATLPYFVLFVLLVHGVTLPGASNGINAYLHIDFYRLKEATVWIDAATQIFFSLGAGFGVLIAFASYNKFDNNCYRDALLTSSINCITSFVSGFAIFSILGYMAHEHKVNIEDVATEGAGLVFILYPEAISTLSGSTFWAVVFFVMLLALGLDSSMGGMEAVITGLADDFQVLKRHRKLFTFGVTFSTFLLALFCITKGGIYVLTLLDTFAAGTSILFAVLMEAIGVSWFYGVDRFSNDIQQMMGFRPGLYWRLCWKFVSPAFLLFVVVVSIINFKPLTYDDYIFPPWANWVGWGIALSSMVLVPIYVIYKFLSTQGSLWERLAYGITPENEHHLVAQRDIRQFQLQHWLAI
Sodium-dependent serotonin transporter, sequence (P31645 whole entry): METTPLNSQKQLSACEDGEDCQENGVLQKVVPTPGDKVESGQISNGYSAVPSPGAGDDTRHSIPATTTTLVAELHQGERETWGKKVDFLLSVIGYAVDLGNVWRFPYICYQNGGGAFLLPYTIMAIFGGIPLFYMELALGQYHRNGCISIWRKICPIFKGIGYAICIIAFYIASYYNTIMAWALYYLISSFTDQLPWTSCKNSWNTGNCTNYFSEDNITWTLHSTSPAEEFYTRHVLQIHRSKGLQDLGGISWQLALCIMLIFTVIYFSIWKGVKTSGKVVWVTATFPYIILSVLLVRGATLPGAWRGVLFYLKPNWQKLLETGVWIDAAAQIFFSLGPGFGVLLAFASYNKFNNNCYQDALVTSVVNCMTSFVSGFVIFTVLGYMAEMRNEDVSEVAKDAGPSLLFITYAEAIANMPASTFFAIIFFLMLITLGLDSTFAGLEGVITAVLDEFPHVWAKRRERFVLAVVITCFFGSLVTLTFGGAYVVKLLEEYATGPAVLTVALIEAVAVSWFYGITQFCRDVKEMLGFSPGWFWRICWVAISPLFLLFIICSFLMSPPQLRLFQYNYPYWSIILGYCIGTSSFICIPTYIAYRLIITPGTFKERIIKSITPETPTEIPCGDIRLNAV

## CC(C)CN(Cc1cccc(C#N)c1)C1CCNCC1
[1]
  Ki: 0.48 nM
[2]
  Ki: 690 nM
[3]
  Ki: 201 nM

## COCCCN(Cc1ccccc1C(F)(F)F)C1CCNCC1
[1]
  Ki: 2.2 nM
[4]
  inhibition: -8%
[2]
  Ki: 6.8 nM

## CC(C)CN(Cc1ccc(C(F)(F)F)cc1F)C1CCNCC1
[1]
  Ki: 5.8 nM
[2]
  Ki: 2.2 nM
[3]
  Ki: 120 nM

## CC(C)(C#N)CCN(Cc1ccc(F)cc1C(F)(F)F)C1CCNCC1
[1]
  Ki: 0.7 nM
[2]
  Ki: 6.2 nM

## FC(F)(F)OCCN(Cc1ccccc1C(F)(F)F)C1CCNCC1
[1]
  Ki: 17 nM
[4]
  inhibition: -8%
[2]
  Ki: 51 nM

## Cc1ccccc1CN(CC(C)C)C1CCNCC1
[1]
  Ki: 1.5 nM
[2]
  Ki: 3.3 nM
[3]
  Ki: 240 nM

## CCCCN(Cc1ccccc1C(F)(F)F)C1CCNCC1
[1]
  Ki: 1.5 nM
[2]
  Ki: 5.1 nM

## Cc1ccc(CN(CC(C)C)C2CCNCC2)cc1
[1]
  Ki: 0.99 nM
[2]
  Ki: 69 nM

## CC(C)CN(Cc1ccccc1C#N)C1CCNCC1
[1]
  Ki: 1.2 nM
[2]
  Ki: 42 nM

## CC(C)CN(Cc1ccc(F)cc1)C1CCNCC1
[1]
  Ki: 1.9 nM
[2]
  Ki: 78 nM
[3]
  Ki: 200 nM

## COCCN(Cc1ccccc1C(F)(F)F)C1CCNCC1
[1]
  Ki: 2.5 nM
[4]
  inhibition: 4%
[2]
  Ki: 8.3 nM

## Fc1ccc(CN(CC2CC2)C2CCNCC2)c(C(F)(F)F)c1 [listing 1 of 2 here]
[1]
  Ki: 0.8 nM
[2]
  Ki: 6.1 nM

## CC(C)CN(Cc1cccc(C(F)(F)F)c1Cl)C1CCNCC1
[1]
  Ki: 0.48 nM
[2]
  Ki: 420 nM

## CCOCCN(Cc1ccc(F)cc1C(F)(F)F)C1CCNCC1
[1]
  Ki: 2.8 nM
[4]
  inhibition: -3%
[2]
  Ki: 9.6 nM

## CC(C)CN(Cc1cccc(F)c1)C1CCNCC1
[2]
  Ki: 43 nM
[3]
  Ki: 86.5 nM

## CC(C)CN(Cc1c(F)cccc1C(F)(F)F)C1CCNCC1
[1]
  Ki: 4.1 nM
[2]
  Ki: 6 nM

## CC(C)CN(Cc1cc(C(F)(F)F)ccc1Cl)C1CCNCC1
[1]
  Ki: 9.6 nM
[2]
  Ki: 175 nM

## CC(C)(O)CN(Cc1ccc(F)cc1C(F)(F)F)C1CCNCC1
[1]
  Ki: 4 nM
[4]
  inhibition: -8%
[2]
  Ki: 4.2 nM

## CC(C)CN(Cc1ccccc1Cl)C1CCNCC1
[1]
  Ki: 1.6 nM
[2]
  Ki: 1.4 nM
[3]
  Ki: 83 nM

## CC(C)(O)CCN(Cc1ccc(F)cc1C(F)(F)F)C1CCNCC1
[1]
  Ki: 5 nM
[4]
  inhibition: 1.3%

## CC(C)OCCN(Cc1ccc(F)cc1C(F)(F)F)C1CCNCC1
[1]
  Ki: 3 nM
[4]
  inhibition: 5%
[2]
  Ki: 9.7 nM

## Cc1ccc(CN(CC(C)C)C2CCNCC2)c(C)c1
[1]
  Ki: 0.39 nM
[2]
  Ki: 4.8 nM

## CN(Cc1ccccc1C(F)(F)F)C1CCNCC1
[4]
  inhibition: 3%

## N#CCCCN(Cc1ccc(F)cc1C(F)(F)F)C1CCNCC1
[1]
  Ki: 0.4 nM
[4]
  inhibition: 10%
[2]
  Ki: 13.3 nM

## CCCCN(Cc1ccc(F)cc1C(F)(F)F)C1CCNCC1
[1]
  Ki: 1.3 nM
[2]
  Ki: 8.3 nM

## CC(C)CN(Cc1ccc(F)cc1F)C1CCNCC1
[1]
  Ki: 3.1 nM
[2]
  Ki: 20 nM
[3]
  Ki: 580 nM

## CC(C)CN(Cc1ccc(C(F)(F)F)cc1)C1CCNCC1
[1]
  Ki: 0.07 nM
[2]
  Ki: 300 nM

## CCN(Cc1ccccc1C(F)(F)F)C1CCNCC1
[1]
  Ki: 8 nM
[4]
  inhibition: -2%
[2]
  Ki: 61 nM

## Fc1ccc(CN(CC2CC2)C2CCNCC2)c(C(F)(F)F)c1 [listing 2 of 2 here]
[1]
  Ki: 0.4 nM
[2]
  Ki: 6.5 nM

## CC(C)CN(Cc1ccccc1C(F)(F)F)C1CCNCC1
[1]
  Ki: 1.4 nM
[2]
  Ki: 3.2 nM
[3]
  Ki: 210 nM

## CC(C)CN(Cc1ccccc1F)C1CCNCC1
[2]
  Ki: 15 nM
[3]
  Ki: 330 nM

## CC(C)CN(Cc1cc(F)ccc1C(F)(F)F)C1CCNCC1
[1]
  Ki: 7.9 nM
[2]
  Ki: 3.4 nM

## COc1ccc(CN(CC(C)C)C2CCNCC2)c(OC)c1
[1]
  Ki: 2.2 nM
[4]
  inhibition: 1.8%
[2]
  Ki: 1060 nM

## CCCN(Cc1ccccc1C(F)(F)F)C1CCNCC1
[1]
  Ki: 2.2 nM
[2]
  Ki: 6.5 nM

## CC(C)CN(Cc1ccccc1)C1CCNCC1
[1]
  Ki: 8.4 nM
[2]
  Ki: 91 nM

## OCCN(Cc1ccc(F)cc1C(F)(F)F)C1CCNCC1
[1]
  Ki: 3.1 nM
[4]
  inhibition: -7%
[2]
  Ki: 95.9 nM

## CC(C)N(Cc1ccccc1C(F)(F)F)C1CCNCC1
[1]
  Ki: 5.6 nM
[2]
  Ki: 26 nM

## N#CCCCN(Cc1ccccc1C(F)(F)F)C1CCNCC1
[1]
  Ki: 0.58 nM
[2]
  Ki: 21 nM

## CC(C)(C#N)CN(Cc1ccc(F)cc1C(F)(F)F)C1CCNCC1
[1]
  Ki: 4.2 nM
[2]
  Ki: 15.9 nM

## CC(C)CN(Cc1cccc(C(F)(F)F)c1)C1CCNCC1
[1]
  Ki: 0.26 nM
[2]
  Ki: 255 nM

## FC(F)(F)c1ccccc1CN(C1CCCC1)C1CCNCC1
[1]
  Ki: 3.6 nM
[2]
  Ki: 4.1 nM

## COCCCN(Cc1ccc(F)cc1C(F)(F)F)C1CCNCC1
[1]
  Ki: 1.1 nM
[4]
  inhibition: -7%
[2]
  Ki: 5.4 nM

## CCCN(Cc1ccc(F)cc1C(F)(F)F)C1CCNCC1
[1]
  Ki: 0.8 nM
[2]
  Ki: 3.6 nM

## CC(C)CN(Cc1cc(Cl)ccc1Cl)C1CCNCC1
[1]
  Ki: 2.1 nM
[2]
  Ki: 5.5 nM

## COc1ccc(F)cc1CN(CC(C)C)C1CCNCC1
[1]
  Ki: 1.4 nM
[4]
  inhibition: -2%
[2]
  Ki: 42.1 nM

## CC(C)CN(Cc1ccc(F)cc1C(F)(F)F)C1CCNCC1
[1]
  Ki: 0.3 nM
[2]
  Ki: 1.8 nM
[3]
  Ki: 190 nM

## COc1ccccc1CN(CC(C)C)C1CCNCC1
[1]
  Ki: 15 nM
[4]
  inhibition: 4%
[2]
  Ki: 145 nM

## FC(F)(F)CN(Cc1ccccc1C(F)(F)F)C1CCNCC1
[1]
  Ki: 4.6 nM
[2]
  Ki: 33 nM

## CCC(CC)CN(Cc1ccccc1C(F)(F)F)C1CCNCC1
[1]
  Ki: 6.9 nM
[2]
  Ki: 6.1 nM

## CC(C)(C)CN(Cc1ccccc1C(F)(F)F)C1CCNCC1
[1]
  Ki: 4.3 nM
[2]
  Ki: 2.7 nM
[3]
  Ki: 160 nM

## CC(C)CN(Cc1ccc(Cl)cc1Cl)C1CCNCC1
[1]
  Ki: 0.96 nM
[2]
  Ki: 2 nM
[3]
  Ki: 230 nM

## Cc1cccc(CN(CC(C)C)C2CCNCC2)c1
[1]
  Ki: 2.2 nM
[2]
  Ki: 150 nM
[3]
  Ki: 98 nM

## CC(C)CN(Cc1ccc(C#N)cc1)C1CCNCC1
[1]
  Ki: 0.28 nM
[2]
  Ki: 190 nM

## N#CCCN(Cc1ccc(F)cc1C(F)(F)F)C1CCNCC1
[1]
  Ki: 0.4 nM
[4]
  inhibition: -4%
[2]
  Ki: 13.3 nM

## CCC(CC)N(Cc1ccccc1C(F)(F)F)C1CCNCC1
[1]
  Ki: 6.8 nM
[2]
  Ki: 86 nM

## CC(C)CN(Cc1ccccc1OC(F)(F)F)C1CCNCC1
[1]
  Ki: 2.2 nM
[2]
  Ki: 7.1 nM

## FC(F)(F)c1ccccc1CN(CC1CC1)C1CCNCC1
[1]
  Ki: 1.5 nM
[2]
  Ki: 6 nM

## Fc1ccc(CN(CC2CCC2)C2CCNCC2)c(C(F)(F)F)c1
[1]
  Ki: 2.5 nM
[2]
  Ki: 3.1 nM

## CSc1ccccc1CN(CC(C)C)C1CCNCC1
[1]
  Ki: 1.1 nM
[2]
  Ki: 3.3 nM

## FC(F)(F)CCN(Cc1ccccc1C(F)(F)F)C1CCNCC1
[1]
  Ki: 2.8 nM
[2]
  Ki: 9.8 nM
